Each block holds one compound with its values, some of them ahead of it.
Experiments:
[1] = Inhibition of soybean 15-LOX by chemiluminescence based analysis; parameters: species or system Glycine max
[2] = test system: Rattus norvegicus; experiment: Anti-inflammatory activity against carrageenan-induced paw edema in Wistar albino rat assessed as inhibition of paw edema at 50 mg/kg, sc administered for 14 days relative to control; assay type: functional; parameters: scale not given: the % may be the effect or the level left; details: time 14 day
[3] = Inhibition of soybean 15-LOX colorimetric assay; parameters: species or system Glycine max
[4] = target: Prostaglandin G/H synthase 1 (Homo sapiens) (UniProt P23219); experiment: Inhibition of human COX-1 at 10 uM relative to control
[5] = target: T1, Prostaglandin G/H synthase 2 (Homo sapiens, UniProt P35354); experiment: Inhibition of COX-2 (unknown origin) by Enzyme immune assay
T1 sequence (P35354 whole entry): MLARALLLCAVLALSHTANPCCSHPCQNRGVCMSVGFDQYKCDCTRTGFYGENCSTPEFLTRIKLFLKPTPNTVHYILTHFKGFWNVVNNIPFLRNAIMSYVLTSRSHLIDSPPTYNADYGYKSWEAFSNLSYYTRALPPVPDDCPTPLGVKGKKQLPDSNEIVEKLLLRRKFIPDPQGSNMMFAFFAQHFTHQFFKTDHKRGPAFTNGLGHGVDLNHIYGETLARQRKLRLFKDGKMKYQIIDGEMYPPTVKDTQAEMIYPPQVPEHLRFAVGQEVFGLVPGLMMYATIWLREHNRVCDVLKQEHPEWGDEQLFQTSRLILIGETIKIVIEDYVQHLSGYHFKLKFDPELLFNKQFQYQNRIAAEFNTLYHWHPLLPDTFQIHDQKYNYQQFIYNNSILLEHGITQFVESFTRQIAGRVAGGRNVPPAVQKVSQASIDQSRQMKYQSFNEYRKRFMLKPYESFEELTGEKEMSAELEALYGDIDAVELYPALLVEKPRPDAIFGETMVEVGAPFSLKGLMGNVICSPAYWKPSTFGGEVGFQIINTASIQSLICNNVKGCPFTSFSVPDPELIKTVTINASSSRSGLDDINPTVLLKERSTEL

[6] = Inhibition of soybean 15-LOX; parameters: species or system Glycine max
[7] = test system: Mononuclear cell line; experiment: Induction of apoptosis in human Mononuclear cell line assessed as early apoptosis at 10 uM incubated for 48 hrs by AnnexinV-FITC/PI staining based flow cytometry relative to control; assay type: functional
[8] = target: T1, Prostaglandin G/H synthase 2; experiment: Inhibition of human recombinant COX-2
[9] = Inhibition of soybean lipoxygenase; parameters: species or system Glycine max
[10] = test system: Caco-2; experiment: Antiproliferative activity against human Caco-2 cells assessed as reduction in cell growth incubated for 72 hrs by MTT assay; assay type: functional, cell-based; details: Caco-2, 72 h
[11] = test system: PC-3; experiment: Antiproliferative activity against human PC-3 cells assessed as reduction in cell growth incubated for 72 hrs by MTT assay; assay type: functional, cell-based; details: PC-3, 72 h
[12] = test system: HepG2; experiment: Anticancer activity against human HepG2 cells assessed as cell viability measured after 72 hrs by MTT assay; assay type: functional, cell-based; details: HepG2, 72 h
[13] = test system: MCF7; experiment: Antitumor activity against human MCF7 cells assessed as reduction in cell viability measured for 72 hrs by MTT assay; assay type: functional, cell-based; details: MCF7, 72 h
[14] = test system: A549; experiment: Anticancer activity against human A549 cells assessed as reduction in cell viability measured for 72 hrs by MTT assay; assay type: functional, cell-based; details: A549, 72 h
[15] = Inhibition of human recombinant sPLA2-V
[16] = target: T2, Seed linoleate 13S-lipoxygenase-1 (Glycine max, UniProt P08170); experiment: Inhibition of soybean LOX-1 using linoleic acid as substrate
T2 sequence (P08170 whole entry): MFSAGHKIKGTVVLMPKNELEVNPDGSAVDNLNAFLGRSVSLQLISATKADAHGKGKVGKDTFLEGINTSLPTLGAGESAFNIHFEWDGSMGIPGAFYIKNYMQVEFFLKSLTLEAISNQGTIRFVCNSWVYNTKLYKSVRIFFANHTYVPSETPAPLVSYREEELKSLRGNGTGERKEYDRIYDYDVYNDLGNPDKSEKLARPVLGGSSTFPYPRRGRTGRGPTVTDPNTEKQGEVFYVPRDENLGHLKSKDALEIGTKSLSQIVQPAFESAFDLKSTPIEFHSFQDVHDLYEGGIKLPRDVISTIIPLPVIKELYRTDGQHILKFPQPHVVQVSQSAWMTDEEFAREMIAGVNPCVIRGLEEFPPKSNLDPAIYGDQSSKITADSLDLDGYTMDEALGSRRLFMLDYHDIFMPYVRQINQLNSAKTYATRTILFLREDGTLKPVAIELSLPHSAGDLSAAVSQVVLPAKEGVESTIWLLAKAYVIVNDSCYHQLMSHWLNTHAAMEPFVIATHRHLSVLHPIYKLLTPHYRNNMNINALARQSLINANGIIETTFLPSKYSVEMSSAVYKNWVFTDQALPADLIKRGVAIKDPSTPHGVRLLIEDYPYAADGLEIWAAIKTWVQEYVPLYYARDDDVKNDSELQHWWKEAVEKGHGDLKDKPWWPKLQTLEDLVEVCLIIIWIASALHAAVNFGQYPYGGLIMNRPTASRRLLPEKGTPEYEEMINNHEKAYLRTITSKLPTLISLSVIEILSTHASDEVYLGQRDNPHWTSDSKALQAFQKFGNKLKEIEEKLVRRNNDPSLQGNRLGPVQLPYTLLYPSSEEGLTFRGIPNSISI

[17] = target: T1, Prostaglandin G/H synthase 2; experiment: Inhibition of COX-2 (unknown origin)
[18] = Inhibition of soybean 15-LOX by spectrophotometric method; parameters: species or system Glycine max

Chain of Prostaglandin G/H synthase 1 (Homo sapiens) (P23219 whole entry): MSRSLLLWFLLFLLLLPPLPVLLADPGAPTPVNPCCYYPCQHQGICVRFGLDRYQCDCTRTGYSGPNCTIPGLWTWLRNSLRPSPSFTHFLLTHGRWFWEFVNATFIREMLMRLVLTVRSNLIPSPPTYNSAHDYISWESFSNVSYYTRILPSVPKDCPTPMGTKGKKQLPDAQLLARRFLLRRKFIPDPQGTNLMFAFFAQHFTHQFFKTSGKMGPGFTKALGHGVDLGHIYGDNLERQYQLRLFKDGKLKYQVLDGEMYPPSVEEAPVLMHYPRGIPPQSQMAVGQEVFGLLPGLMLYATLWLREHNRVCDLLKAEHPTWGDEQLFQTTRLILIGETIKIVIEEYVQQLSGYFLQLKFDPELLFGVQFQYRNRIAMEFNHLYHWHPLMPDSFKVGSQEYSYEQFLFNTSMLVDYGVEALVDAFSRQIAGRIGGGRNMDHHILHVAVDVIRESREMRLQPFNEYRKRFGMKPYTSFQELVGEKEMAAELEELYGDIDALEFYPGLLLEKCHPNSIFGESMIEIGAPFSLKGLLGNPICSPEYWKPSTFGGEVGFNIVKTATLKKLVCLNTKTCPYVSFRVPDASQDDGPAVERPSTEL

SMILES: CCc1ccccc1NC(=O)CSc1nnc(C2CCN(C(=O)Nc3ccccc3)CC2)o1
IC50 [1]: 7.15 µM

SMILES: Cc1ccc(C)c(NC(=O)CSc2nnc(C3CCN(C(=O)Nc4ccccc4)CC3)o2)c1
IC50 [1]: 26.1 µM

SMILES: O=c1c(O)c(-c2ccc(O)c(O)c2)oc2cc(O)cc(O)c12 [QUERCETIN]
IC50 [6]: 4.84 µM
Activity [7]: 4.26%

SMILES: CC(=O)Oc1ccccc1C(=O)O [ASPIRIN]
IC50 [6]: 4.62 µM

SMILES: COc1ccc(Cn2cc(COc3ccc(/C=C4\SC(=O)NC4=O)cc3)nn2)cc1
IC50 [1]: 5.24 µM

SMILES: C=CCc1cc(NC(=O)C23CC4CC(CC(C4)C2)C3)ccc1OC(C)C
IC50 [6]: 1.35 µM

SMILES: CN(C)c1ccc(/C=C/C(=O)c2cc(-n3cc(CN4C(=O)C(=O)c5ccccc54)nn3)ccc2O)cc1
IC50 [8]: 1410 nM

SMILES: CC(Cc1ccc(O)c(O)c1)C(C)Cc1ccc(O)c(O)c1 (stereo not given) [NORDIHYDROGUAIARETIC ACID]
IC50 [3]: 8.5 µM

SMILES: CCn1c(-n2cc(/C=N/N=C3\SCC(=O)N3c3ccccc3)c(-c3ccccc3)n2)nc2c1c(=O)n(C)c(=O)n2C
IC50 [10]: 18.5 µM
IC50 [11]: 18.5 µM
IC50 [12]: 18.5 µM
IC50 [13]: 18.5 µM
IC50 [14]: 18.5 µM

SMILES: CCc1ccc(NC(=O)CSc2nnc(C3CCN(C(=O)Nc4ccccc4)CC3)o2)cc1
IC50 [1]: 26.1 µM

SMILES: CC(C(=O)O)c1cccc(C(=O)c2ccccc2)c1 (stereo not given) [KETOPROFEN]
IC50 [6]: 24.8 µM

SMILES: CC(=O)Nc1ccc(O)cc1 [ACETAMINOPHEN]
IC50 [6]: 6.52 µM

SMILES: CC(=O)c1cc2ccc(OC/C=C(\C)CC/C=C(\C)CCC=C(C)C)cc2oc1=O
IC50 [16]: 680 nM

SMILES: O=c1cc(-c2ccccc2)oc2cc(O)c(O)c(O)c12 [BAICALEIN]
IC50 [6]: 22.5 µM

SMILES: COc1ccc2cc([C@H](C)C(=O)O)ccc2c1 [NAPROXEN]
IC50 [6]: 3.52 µM

SMILES: Cc1ccc(Cl)c(Nc2ccccc2C(=O)O)c1Cl [MECLOFENAMATE SODIUM]
IC50 [5]: 5.64 nM

SMILES: CCOC(=O)c1sc(N/N=C/c2ccccc2)nc1C
IC50 [18]: 120 nM

SMILES: Cc1ccc(NC(=O)CSc2nnc(C3CCN(C(=O)Nc4ccccc4)CC3)o2)cc1C
IC50 [1]: 26.1 µM

SMILES: CCOc1cc(N)n2nc(Nc3cc(OC)ccn3)c(C#N)c2n1
Activity [2]: 46%

SMILES: CCOC(=O)c1sc(N/N=C/c2c(F)cccc2Cl)nc1C
IC50 [18]: 120 nM

SMILES: Cc1ccc(NC(=O)CSc2nnc(C3CCN(C(=O)Nc4ccccc4)CC3)o2)c(C)c1
Activity [7]: 79.5%
IC50 [1]: 26.1 µM

SMILES: Cc1cccc(C)c1NC(=O)CSc1nnc(C2CCN(C(=O)Nc3ccccc3)CC2)o1
IC50 [1]: 18.4 µM

SMILES: COc1ccc2cc(C(C)C(=O)O/N=C(\N)c3ccc(OC)c(OC)c3)ccc2c1 (stereo not given)
IC50 [5]: 6.4 nM

SMILES: O=C(Cc1ccccc1Nc1c(Cl)cccc1Cl)N/N=C1\C(=O)N(Cc2ccccc2)c2ccccc21
IC50 [6]: 6.64 µM

Second part, led by results:

IC50 [3]: 5.6 µM
SMILES: COc1ccnc(Nc2nn3c(C)cc(C)nc3c2C#N)c1
Activity [2]: 46%

inhibition [4]: 50%
SMILES: COc1ccc(-c2nnc(N/N=C/c3ccc4c(c3)OCO4)nc2-c2ccc(OC)cc2)cc1

IC50 [5]: 6.4 nM
SMILES: COc1ccc2cc(C(C)C(=O)ON=C(N)c3ccc4c(c3)OCO4)ccc2c1 (stereo not given)

IC50 [6]: 24.8 µM
SMILES: Cc1cccc(Nc2ccccc2C(=O)O)c1C [MEFENAMIC ACID]

IC50 [1]: 26.1 µM
SMILES: O=C(CSc1nnc(C2CCN(C(=O)Nc3ccccc3)CC2)o1)Nc1ccccc1

IC50 [9]: 124 µM
SMILES: COc1ccc(-c2nnc(N/N=C/c3ccc(F)cc3)nc2-c2ccc(OC)cc2)cc1

IC50 [5]: 1.77 nM
SMILES: COc1ccc2cc(C(C)C(=O)ON=C(N)c3ccc(-c4ccccc4)c(-c4ccccc4)c3)ccc2c1 (stereo not given)

IC50 [6]: 15 µM
SMILES: CC(c1cc2ccccc2s1)N(O)C(N)=O (stereo not given) [ZILEUTON]

IC50 [15]: 1700 nM
SMILES: CCOc1cc(C)nc2c(C#N)c(Nc3cc(OC)ccn3)nn12
Activity [2]: 46%

IC50 [1]: 9.32 µM
SMILES: CCCNC(=O)CSc1nnc(C2CCN(C(=O)Nc3ccccc3)CC2)o1

IC50 [6]: 21.5 µM
SMILES: Cc1ccc(OCc2nnc(SCC(=O)Nc3ccccc3)o2)cc1

IC50 [8]: 1410 nM
SMILES: O=C(/C=C/c1ccc(Br)cc1)c1cc(-n2cc(CN3C(=O)C(=O)c4ccccc43)nn2)ccc1O

IC50 [17]: 70 nM
IC50 [6]: 11 µM
SMILES: O=C1N/C(=N\c2nnc(-c3ccc(O)cc3)s2)S/C1=C\c1ccccc1

IC50 [6]: 49.5 µM
SMILES: CN1C(C(=O)Nc2ccccn2)=C(O)c2sccc2S1(=O)=O [TENOXICAM]

IC50 [6]: 24.8 µM
SMILES: O=C(O)Cc1ccccc1Nc1c(Cl)cccc1Cl [DICLOFENAC]

IC50 [8]: 1410 nM
SMILES: COc1ccc(/C=C/C(=O)c2cc(-n3cc(CN4C(=O)C(=O)c5ccccc54)nn3)ccc2O)cc1

IC50 [6]: 4.61 µM
SMILES: O=C(Cc1ccccc1Nc1c(Cl)cccc1Cl)N/N=C1\C(=O)N(Cc2ccccc2)c2ccc(Cl)cc21

IC50 [1]: 26.1 µM
SMILES: O=C(CSc1nnc(C2CCN(C(=O)Nc3ccccc3)CC2)o1)NC1CCCCC1

IC50 [1]: 26.1 µM
SMILES: Cc1cc(C)cc(NC(=O)CSc2nnc(C3CCN(C(=O)Nc4ccccc4)CC3)o2)c1
Activity [7]: 79.5%

IC50 [1]: 26.1 µM
SMILES: Cc1cccc(NC(=O)CSc2nnc(C3CCN(C(=O)Nc4ccccc4)CC3)o2)c1

IC50 [10]: 18.5 µM
IC50 [11]: 18.5 µM
IC50 [12]: 18.5 µM
IC50 [13]: 18.5 µM
IC50 [14]: 18.5 µM
SMILES: CCn1c(-n2cc(/C=N/N=c3\scc(-c4ccc(Br)cc4)n3-c3ccccc3)c(-c3ccccc3)n2)nc2c1c(=O)n(C)c(=O)n2C

IC50 [1]: 15.8 µM
SMILES: CCN(CC)C(=O)CSc1nnc(C2CCN(C(=O)Nc3ccccc3)CC2)o1
Activity [7]: 79.5%

IC50 [6]: 62.6 µM
SMILES: CN1C(C(=O)Nc2ccccn2)=C(O)c2ccccc2S1(=O)=O [PIROXICAM]

IC50 [6]: ≤ 40 µM
SMILES: CC(C)(C)Nc1c(-c2cc3ccccc3nc2Cl)nc2sccn12

IC50 [5]: 6.4 nM
SMILES: COc1ccc2cc(C(C)C(=O)O/N=C(\N)c3ccc(Cl)cc3)ccc2c1 (stereo not given)

IC50 [5]: 6.4 nM
SMILES: COc1ccc(/C(N)=N/OC(=O)C(C)c2ccc3cc(OC)ccc3c2)cc1 (stereo not given)
